The values below come from publication PMC4774911, “Biochemical Screening of Five Protein Kinases from Plasmodium falciparum against 14,000 Cell-Active Compounds” (PLoS ONE, 2016).

Experiment [1] deals with PKG (Plasmodium falciparum, UniProt Q8I719). In words: PKG IC50 (supplementary data file). It is filed as biochemical. An excerpt:
Supplement pone.0149996.s003.xls, sheet "combined_1_sorted"

Experiment [2] has as its target T1, TNK2 (Homo sapiens, UniProt Q07912). The experiment can be described thus: biochemical. To be noted: read-out: KDapp. Also noted: endogenous in cells; host or cells: K562 cell extract; species or system K562 (extract); replicate k of n = 2 (each experiment ID is one independent experiment; two experiment IDs per compound).
The target in experiment [3] is T1, TNK2. In words: Kinobead competition assay in K562 extract: TNK2.
Experimental: (§1) Kinobeads were prepared as described [25, 26]. […] Briefly, Kinobeads were washed and equilibrated in lysis buffer (50 mM Tris-Cl, pH 7.4, 0.4% Igepal-CA630, 1.5 mM MgCl2, 5% Glycerol, 150 mM NaCl, 25 mM NaF, 1 mM Na3VO4, 1 mM DTT, and 1 complete EDTA-free protease inhibitor tablet (Roche) per 25 ml). […] Digestion, labeling with TMT isobaric mass tags, peptide fractionation, and mass spectrometric analyses were performed essentially as described [27]. Criteria for protein quantification were: a minimum of 2 sequence assignments matching to unique peptides was required (FDR for quantified proteins <<0.1%), Mascot ion score > 15, signal to background ratio of the precursor ion > 4, signal to interference > 0.5 [28]. Reporter ion intensities were multiplied by ion accumulation time, yielding an area value proportional to the number of reporter ions present in the mass analyzer. Peptide fold changes were corrected for isotope purity as described and adjusted for interference caused by co-eluting nearly isobaric peaks as estimated by the signal-to-interference measure [29]. Protein quantification was achieved using a sum-based bootstrap algorithm [30]. Apparent dissociation constants were determined by taking into account the protein depletion by the beads as described [27].
(§2) Kinobeads were incubated with K562 cell extract either in the presence of vehicle (DMSO) or TCAMS compound, respectively (20 μM-0.03 μM). Protein kinases captured by the beads (140–150 kinases per experiment) were quantified following tryptic digestion, isobaric peptide tagging, and LC-MS/MS analysis. Kinases were identified as potential targets by virtue of their reduced capture in the presence of excess TCAMS compounds. Apparent dissociation constants (Kd’s) were calculated from the extent to which capture of each kinase was reduced at each compound concentration.
Experiment [4] deals with 3D7 PFLDH. Also noted: method as in F.J. Gamo et al., Nature 2010. To be noted: downloaded from ChEMBL ref F.J. Gamo et al., Nature 2010; cited from earlier work.
For experiment [5], the system named is DD2. The arrangement: method as in F.J. Gamo et al., Nature 2010. To be noted: P. falciparum Dd2; downloaded from ChEMBL ref F.J. Gamo et al., Nature 2010; cited from earlier work.
In experiment [6] the target is AAK1 (Homo sapiens, UniProt Q2M2I8). In words: Kinobead competition assay in K562 extract: AAK1.
Experimental: as §1, §2
Experiment [7] concerns 3D7 PFLDH. Also noted: method as in ChEMBL. To be noted: ref ChEMBL; cited from earlier work.
Experiment [8] has as its system P. falciparum DD2. The arrangement: method as in ChEMBL. To be noted: ref ChEMBL; cited from earlier work.
Where [9] appears, read: TNK2, K-562 extract, conc. series 20.0-0.0uM, channel assignment not given.
Setting [10] is: AAK1, K-562 extract, conc. series 20.0-0.0uM, channel assignment not given.

Read-outs that look alike come from different tables or passages of the source. Some results are limits rather than exact numbers.

T1 sequence (Q07912 whole entry): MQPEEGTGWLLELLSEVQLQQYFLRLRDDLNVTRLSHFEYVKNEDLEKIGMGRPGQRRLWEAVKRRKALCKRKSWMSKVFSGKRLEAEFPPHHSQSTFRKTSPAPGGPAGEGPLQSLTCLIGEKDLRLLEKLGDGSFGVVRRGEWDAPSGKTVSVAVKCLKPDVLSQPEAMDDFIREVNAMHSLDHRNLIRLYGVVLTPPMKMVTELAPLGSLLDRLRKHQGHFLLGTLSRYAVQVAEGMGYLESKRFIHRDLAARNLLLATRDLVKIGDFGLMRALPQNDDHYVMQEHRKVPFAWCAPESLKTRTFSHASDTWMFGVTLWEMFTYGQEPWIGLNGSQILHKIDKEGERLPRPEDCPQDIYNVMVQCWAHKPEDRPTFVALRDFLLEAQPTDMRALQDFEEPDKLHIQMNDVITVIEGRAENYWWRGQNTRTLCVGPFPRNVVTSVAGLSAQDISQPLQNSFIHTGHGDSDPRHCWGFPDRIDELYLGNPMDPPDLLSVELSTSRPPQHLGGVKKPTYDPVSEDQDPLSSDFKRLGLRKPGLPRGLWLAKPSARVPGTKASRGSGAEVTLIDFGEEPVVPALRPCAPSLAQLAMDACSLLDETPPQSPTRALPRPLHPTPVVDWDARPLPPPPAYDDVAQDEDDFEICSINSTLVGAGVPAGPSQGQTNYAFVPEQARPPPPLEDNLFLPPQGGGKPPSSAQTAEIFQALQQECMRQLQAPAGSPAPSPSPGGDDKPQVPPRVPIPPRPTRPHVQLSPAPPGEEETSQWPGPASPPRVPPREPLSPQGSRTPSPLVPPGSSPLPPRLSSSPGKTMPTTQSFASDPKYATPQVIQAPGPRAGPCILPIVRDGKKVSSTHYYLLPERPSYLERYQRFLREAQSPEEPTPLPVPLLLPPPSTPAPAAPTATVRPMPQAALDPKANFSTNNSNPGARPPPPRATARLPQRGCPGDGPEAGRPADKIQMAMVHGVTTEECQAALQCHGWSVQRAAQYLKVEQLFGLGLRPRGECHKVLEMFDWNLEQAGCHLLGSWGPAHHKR
Chain of AAK1 (Q2M2I8 whole entry): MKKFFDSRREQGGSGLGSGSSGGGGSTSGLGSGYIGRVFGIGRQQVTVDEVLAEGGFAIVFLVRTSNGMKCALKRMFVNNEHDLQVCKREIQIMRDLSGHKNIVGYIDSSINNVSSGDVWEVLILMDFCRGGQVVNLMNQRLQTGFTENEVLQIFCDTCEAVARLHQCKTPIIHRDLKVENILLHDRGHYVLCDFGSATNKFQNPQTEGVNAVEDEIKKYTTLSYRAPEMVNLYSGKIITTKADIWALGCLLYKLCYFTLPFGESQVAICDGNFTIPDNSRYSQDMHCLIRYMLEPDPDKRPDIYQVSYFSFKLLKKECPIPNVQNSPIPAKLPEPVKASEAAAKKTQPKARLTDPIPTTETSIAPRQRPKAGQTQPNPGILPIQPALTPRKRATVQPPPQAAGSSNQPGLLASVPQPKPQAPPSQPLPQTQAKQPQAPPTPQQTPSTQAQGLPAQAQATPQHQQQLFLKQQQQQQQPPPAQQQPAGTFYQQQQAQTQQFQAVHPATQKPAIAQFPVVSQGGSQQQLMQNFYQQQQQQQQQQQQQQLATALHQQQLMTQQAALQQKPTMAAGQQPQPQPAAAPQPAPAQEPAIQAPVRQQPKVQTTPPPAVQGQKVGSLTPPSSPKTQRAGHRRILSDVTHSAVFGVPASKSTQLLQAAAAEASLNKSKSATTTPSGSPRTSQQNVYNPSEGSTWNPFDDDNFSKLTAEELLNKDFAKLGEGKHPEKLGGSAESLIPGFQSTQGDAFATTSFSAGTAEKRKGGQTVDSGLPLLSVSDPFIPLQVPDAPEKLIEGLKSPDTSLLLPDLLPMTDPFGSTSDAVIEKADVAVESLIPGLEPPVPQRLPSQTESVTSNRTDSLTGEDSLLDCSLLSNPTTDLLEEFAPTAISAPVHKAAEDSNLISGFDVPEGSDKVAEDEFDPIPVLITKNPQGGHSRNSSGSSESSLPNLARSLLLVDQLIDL
Chain of PKG (Q8I719 whole entry): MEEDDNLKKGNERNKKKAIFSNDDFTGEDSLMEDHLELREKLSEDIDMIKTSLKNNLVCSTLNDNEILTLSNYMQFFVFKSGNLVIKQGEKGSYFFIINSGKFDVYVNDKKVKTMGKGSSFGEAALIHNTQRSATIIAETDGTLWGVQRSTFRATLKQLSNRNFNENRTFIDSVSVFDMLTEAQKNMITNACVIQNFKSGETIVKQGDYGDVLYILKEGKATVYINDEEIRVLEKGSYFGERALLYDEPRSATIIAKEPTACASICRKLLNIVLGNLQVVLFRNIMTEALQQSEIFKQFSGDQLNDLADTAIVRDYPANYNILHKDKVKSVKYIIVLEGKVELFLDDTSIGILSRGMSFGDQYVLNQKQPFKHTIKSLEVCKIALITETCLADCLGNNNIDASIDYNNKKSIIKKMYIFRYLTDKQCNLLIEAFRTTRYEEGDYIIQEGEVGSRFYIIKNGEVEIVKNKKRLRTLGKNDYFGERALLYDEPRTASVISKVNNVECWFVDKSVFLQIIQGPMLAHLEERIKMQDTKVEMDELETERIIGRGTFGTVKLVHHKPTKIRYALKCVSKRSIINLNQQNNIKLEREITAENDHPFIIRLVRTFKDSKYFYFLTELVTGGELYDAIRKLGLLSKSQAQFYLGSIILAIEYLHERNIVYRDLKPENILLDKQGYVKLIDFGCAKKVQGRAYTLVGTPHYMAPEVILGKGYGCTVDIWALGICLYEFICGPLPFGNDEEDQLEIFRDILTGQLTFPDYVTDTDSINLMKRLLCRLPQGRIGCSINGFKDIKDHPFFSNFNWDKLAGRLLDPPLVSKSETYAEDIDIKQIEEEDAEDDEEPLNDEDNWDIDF

Take `CN1CCN(c2ccc(Nc3ncc(C#N)c(Nc4ccccc4C(N)=O)n3)cc2)CC1.Cl` [TCMDC-134116]: the midpoint of inhibition in experiment [1], the IC50, lay at 103 nM. Besides, in experiment [2], the Kd is 73.5 nM.

On to `Cl.NCC1(c2nc(-c3ccc(Cl)c(O)c3)c(-c3ccncc3)[nH]2)CCCCC1` [TCMDC-141154], for which the half-maximal inhibitory concentration (IC50) in experiment [3] and in experiment [6] was more than 20000 nM each time. The “abundance relative to vehicle TMT126” value was 0.90 in experiment [3] (TNK2, K-562 extract, conc. series 20.0, 4.0, 0.8, 0.16, 0.032, 0.0uM, channel assignment not given) and 0.86 in experiment [6] (AAK1, K-562 extract, conc. series 20.0, 4.0, 0.8, 0.16, 0.032, 0.0uM, channel assignment not given). For the same compound, the “abundance relative to vehicle TMT127L” value in experiment [3] (setting [9]) turned out to be 1.02; in experiment [6] (setting [10]), 0.83. The “abundance relative to vehicle TMT128H” value is recorded as 1.06 in experiment [3] (setting [9]) and 0.89 in experiment [6] (setting [10]). Further, the “abundance relative to vehicle TMT129L” value in experiment [3] (setting [9]) worked out at 1.03; in experiment [6] (setting [10]), 1.02. In addition, the figures for the “abundance relative to vehicle TMT130H” value in experiment [3] (setting [9]) and in experiment [6] (setting [10]) were 1.20 and 1.01, respectively. The Hill came out at 1 in experiment [3] (TNK2, kinobead competition curve) and 0.56 in experiment [6] (AAK1, kinobead competition curve). Also, in experiment [4], the PCT_INHIB_3D7_PFLDH is on record as 0. Further, the PCT_INHB_DD2 in experiment [5] is 98.

As for `CN(C)CC(O)COc1ccc(Nc2ncc([N+](=O)[O-])c(Nc3ccccc3O)n2)cc1.O=C(O)C(F)(F)F` (centres unmarked) [TCMDC-141399], the PCT_INHIB_3D7_PFLDH in experiment [7] was 0. For the same compound, the PCT_INHB_DD2 in experiment [8] was 20.
